Results reported in patent publication US11041000B2, “Peptide inhibitors of interleukin-23 receptor and their use to treat inflammatory diseases” (priority 2019, dated 2021).
Numbered stars: 1 amine (or outer) side, 2 acyl side, 3 side chain; on linkers, the order of the positions; unused ones are H or OH. Bridge positions count the residues as written; N and C are the ends. Square brackets hold non-standard residues; d marks the D form. Peptide text beside a SMILES is read from it. Trp(7-Me) = Cc1cccc2c(C[C@H](N)C(=O)O)c[nH]c12; Abu(4-yl) = O=C([C@H](CC[*:3])N[*:1])[*:2]; 2Nal = N[C@@H](Cc1ccc2ccccc2c1)C(=O)O; AEF = NCCOc1ccc(C[C@H](N)C(=O)O)cc1; Cit = NC(=O)NCCC[C@H](N)C(=O)O; Pen = CC(C)(S)[C@H](N)C(=O)O; αMeK = C[C@](N)(CCCCN)C(=O)O; βAla = NCCC(=O)O

How the values were obtained:
Format in all cases: in vitro ADME
[1] = Stability in human fecal homogenate; conditions: 20% fecal homogenate (supernatant), pH 6.8, 20% human fecal homogenate, anaerobic, 37° C., read-out: t½: Human Feces anaerobic (converted)
Method: Centrifuged the homogenate at 2800×g for 15 min. The supernatant is taken out and used for incubations. […] The final test compound concentration was 20 μM.

[2] = Stability in simulated intestinal fluid (SIF); conditions: simulated intestinal fluid with pancreatin, pH 6.8, 37° C., matrix is 100 fold dilution of standard SIF concentration; for half-life at 20 μM: read-out: SIF t½ (converted); for SIF t½: 20 μM
[3] = Stability in rat plasma; conditions: both sexes, SD rat plasma, EDTA, 37° C., read-out: t½: Rat Plasma EDTA (converted)

Row | Compound | half-life at 20 μM [1] [h] | half-life at 20 μM [2] [h] | SIF t½ [2] [h] | other results
1 | CC(=O)NCCCC[C@@H]1NC(=O)[C@H](Cc2c[nH]c3c(C)cccc23)NC(=O)[C@H]([C@@H](C)O)NC(=O)[C@H](CC(N)=O)NC(=O)[C@@H](NC(C)=O)C(C)(C)SSC(C)(C)[C@@H](C(=O)N[C@@H](Cc2ccc(OCCN)cc2)C(=O)N[C@@H](Cc2ccc3ccccc3c2)C(=O)N[C@@](C)(CCCCN)C(=O)N[C@@H](CCCCNC(C)=O)C(=O)N[C@@H](CC(N)=O)C(=O)N[C@H](C(N)=O)C(C)C)NC1=O [compound 250] | > 19.5 | 11 |  | 
2 | CC(=O)NCCCC[C@@H]1NC(=O)[C@H](Cc2c[nH]c3c(C)cccc23)NC(=O)[C@H]([C@@H](C)O)NC(=O)[C@H](CCC(N)=O)NC(=O)[C@@H](NC(=O)[C@@H](CCCNC(=N)N)NC(C)=O)CCSC[C@@H](C(=O)N[C@@H](Cc2ccc(OCCN)cc2)C(=O)N[C@@H](Cc2ccc3ccccc3c2)C(=O)N[C@@](C)(CCCCN)C(=O)N[C@@H](CCCCNC(C)=O)C(=O)N[C@@H](CC(N)=O)C(N)=O)NC1=O [compound 326] (Ac-[dR][Abu(4-yl)]QT[Trp(7-Me)]K(Ac)C[AEF][2Nal][αMeK]K(Ac)N-NH2; thioether 2-7) |  | 4 |  | half-life at 20 μM [3]: > 24 h
3 | CC(=O)NCCCC[C@H](NC(=O)[C@](C)(CC(C)C)NC(=O)[C@H](Cc1ccc2ccccc2c1)NC(=O)[C@H](Cc1ccc(OCCN)cc1)NC(=O)[C@H]1NC(=O)[C@H](CCC(N)=O)NC(=O)[C@H](Cc2c[nH]c3c(C)cccc23)NC(=O)[C@H]([C@@H](C)O)NC(=O)[C@H](CC(N)=O)NC(=O)[C@@H](NC(C)=O)C(C)(C)SSC1(C)C)C(=O)N[C@H](CO)C(=O)NCCC(N)=O [compound 222] |  | 19 |  | 
4 | CC(=O)NCCCC[C@@H]1NC(=O)[C@H](Cc2c[nH]c3c(C)cccc23)NC(=O)[C@H]([C@@H](C)O)NC(=O)[C@H](CC(N)=O)NC(=O)[C@@H](NC(C)=O)C(C)(C)SSC(C)(C)[C@@H](C(=O)N[C@@H](Cc2ccc(OCCN)cc2)C(=O)N[C@@H](Cc2ccc3ccccc3c2)C(=O)N[C@@](C)(CCCCN)C(=O)N[C@@H](CCCCNC(C)=O)C(=O)N[C@@H](CC(N)=O)C(=O)N2CCC[C@H]2C(N)=O)NC1=O [compound 253] |  | 10 |  | 
5 | CC(=O)NCCCC[C@@H]1NC(=O)[C@H](Cc2c[nH]c3c(C)cccc23)NC(=O)[C@H]([C@@H](C)O)NC(=O)[C@H](CC(N)=O)NC(=O)[C@@H](NC(C)=O)C(C)(C)SSC(C)(C)[C@@H](C(=O)N[C@@H](Cc2ccc(OCCN)cc2)C(=O)N[C@@H](Cc2ccc3ccccc3c2)C(=O)N[C@@](C)(CCCCN)C(=O)N[C@@H](CCCCNC(C)=O)C(=O)N[C@@H](CC(N)=O)C(=O)N[C@@H](Cc2c[nH]cn2)C(N)=O)NC1=O [SEQ ID No. 248, Ac-[Pen]-NT-[W(7-Me)]-[Lys(Ac)]-[Pen]-Phe[4-(2-aminoethoxy)]-[2-Nal]-[a-MeLys]-[Lys(Ac)]-N-H-NH2] | > 22.3 | 32 |  | 
6 | CC(=O)NCCCC[C@H](NC(=O)[C@](C)(CCCCN)NC(=O)[C@H](Cc1ccc2ccccc2c1)NC(=O)[C@H](Cc1ccc(OCCN)cc1)NC(=O)[C@H]1NC(=O)[C@H](CCC(N)=O)NC(=O)[C@H](Cc2c[nH]c3c(C)cccc23)NC(=O)[C@H]([C@@H](C)O)NC(=O)[C@H](CCCNC(N)=O)NC(=O)[C@@H](NC(C)=O)C(C)(C)SSC1(C)C)C(=O)N[C@@H](CC(N)=O)C(=O)NCCC(N)=O [compound 238] (Ac-[Pen][Cit]T[Trp(7-Me)]Q[Pen][AEF][2Nal][αMeK]K(Ac)N[βAla]-NH2; disulfide 1-6) |  |  | 24 | 
7 | CC(=O)NCCCC[C@@H]1NC(=O)[C@H](Cc2c[nH]c3c(C)cccc23)NC(=O)[C@H]([C@@H](C)O)NC(=O)[C@H](CC(N)=O)NC(=O)[C@@H](NC(C)=O)C(C)(C)SSC(C)(C)[C@@H](C(=O)N[C@@H](Cc2ccc(OCCN)cc2)C(=O)N[C@@H](Cc2ccc3ccccc3c2)C(=O)N[C@@](C)(CCCCN)C(=O)N[C@@H](CCCCNC(C)=O)C(=O)N[C@@H](CC(N)=O)C(=O)N[C@@H](CC(C)C)C(N)=O)NC1=O [compound 244] | 15 |  |  | 
8 | CC(=O)NCCCC[C@@H]1NC(=O)[C@H](Cc2c[nH]c3c(C)cccc23)NC(=O)[C@H]([C@@H](C)O)NC(=O)[C@H](CC(N)=O)NC(=O)[C@@H](NC(C)=O)C(C)(C)SSC(C)(C)[C@@H](C(=O)N[C@@H](Cc2ccc(OCCN)cc2)C(=O)N[C@@H](Cc2ccc3ccccc3c2)C(=O)N[C@@](C)(CCCCN)C(=O)N[C@@H](CCCCNC(C)=O)C(=O)N[C@@H](CC(N)=O)C(=O)N[C@@H](C(N)=O)C(C)C)NC1=O [compound 251] |  | 20 |  | 
9 | CC(=O)NCCCC[C@@H]1NC(=O)[C@H](Cc2c[nH]c3c(C)cccc23)NC(=O)[C@H]([C@@H](C)O)NC(=O)[C@H](CC(N)=O)NC(=O)[C@@H](NC(C)=O)C(C)(C)SSC(C)(C)[C@@H](C(=O)N[C@@H](Cc2ccc(OCCN)cc2)C(=O)N[C@@H](Cc2ccc3ccccc3c2)C(=O)N[C@@](C)(CCCCN)C(=O)N[C@@H](CCCCNC(C)=O)C(=O)N[C@@H](CC(N)=O)C(=O)NCCC(N)=O)NC1=O [compound 242] |  |  | 24 | 
10 | CC(=O)NCCCC[C@@H]1NC(=O)[C@@H](NC(C)=O)C(C)(C)SSC(C)(C)[C@@H](C(=O)N[C@@H](Cc2ccc(OCCN)cc2)C(=O)N[C@@H](Cc2ccc3ccccc3c2)C(=O)N[C@@](C)(CCCCN)C(=O)N[C@@H](CCCCNC(C)=O)C(=O)N[C@@H](CC(N)=O)C(=O)NCCC(N)=O)NC(=O)[C@H](CCC(N)=O)NC(=O)[C@H](Cc2c[nH]c3c(C)cccc23)NC(=O)[C@H]([C@@H](C)O)NC1=O [compound 239] |  |  | 24 | 
11 | CC(=O)NCCCC[C@H](NC(=O)[C@](C)(CC(C)C)NC(=O)[C@H](Cc1ccc2ccccc2c1)NC(=O)[C@H](Cc1ccc(OCCN)cc1)NC(=O)[C@H]1NC(=O)[C@H](CCC(N)=O)NC(=O)[C@H](Cc2c[nH]c3c(C)cccc23)NC(=O)[C@H]([C@@H](C)O)NC(=O)[C@H](CC(N)=O)NC(=O)[C@@H](NC(C)=O)C(C)(C)SSC1(C)C)C(=O)N[C@H](C)C(=O)NCCC(N)=O [compound 209] |  | 15 |  | 
12 | CC(=O)NCCCC[C@H](NC(=O)[C@](C)(CCCCN)NC(=O)[C@H](Cc1ccc2ccccc2c1)NC(=O)[C@H](Cc1ccc(OCCN)cc1)NC(=O)[C@H]1NC(=O)[C@H](CCCNC(N)=O)NC(=O)[C@H](Cc2c[nH]c3c(C)cccc23)NC(=O)[C@H]([C@@H](C)O)NC(=O)[C@H](CC(N)=O)NC(=O)[C@@H](NC(C)=O)C(C)(C)SSC1(C)C)C(=O)N[C@@H](CC(N)=O)C(=O)N[C@@H](C(N)=O)[C@H](C)O [compound 263] (Ac-[Pen]NT[Trp(7-Me)][Cit][Pen][AEF][2Nal][αMeK]K(Ac)N[dT]-NH2; disulfide 1-6) |  |  | 24 | 
13 | CC(=O)NCCCC[C@@H]1NC(=O)[C@H](Cc2c[nH]c3c(C)cccc23)NC(=O)[C@H]([C@@H](C)O)NC(=O)[C@H](CC(N)=O)NC(=O)[C@@H](NC(C)=O)C(C)(C)SSC(C)(C)[C@@H](C(=O)N[C@@H](Cc2ccc(OCCN)cc2)C(=O)N[C@@H](Cc2ccc3ccccc3c2)C(=O)N[C@@](C)(CCCCN)C(=O)N[C@@H](CCCCNC(C)=O)C(=O)N[C@@H](CC(N)=O)C(=O)N[C@@H](CCCNC(N)=O)C(N)=O)NC1=O [compound 249] | > 17 | 3 |  | 
